Data as given in ChEMBL document CHEMBL5325415, “Falcipains: Biochemistry, target validation and structure-activity relationship studies of inhibitors as antimalarials” (Eur J Med Chem, 2023).

Legend:
Falcipain 2 [1] = target: T1, Falcipain 2 (Plasmodium falciparum, UniProt Q9N6S8); test: Inhibition of Plasmodium falciparum FP2 using ZFR-AMC as substrate preincubated with enzyme for 10 mins followed by substrate addition and measured for 30 mins by fluorimetric analysis
T1 sequence (Q9N6S8 whole entry): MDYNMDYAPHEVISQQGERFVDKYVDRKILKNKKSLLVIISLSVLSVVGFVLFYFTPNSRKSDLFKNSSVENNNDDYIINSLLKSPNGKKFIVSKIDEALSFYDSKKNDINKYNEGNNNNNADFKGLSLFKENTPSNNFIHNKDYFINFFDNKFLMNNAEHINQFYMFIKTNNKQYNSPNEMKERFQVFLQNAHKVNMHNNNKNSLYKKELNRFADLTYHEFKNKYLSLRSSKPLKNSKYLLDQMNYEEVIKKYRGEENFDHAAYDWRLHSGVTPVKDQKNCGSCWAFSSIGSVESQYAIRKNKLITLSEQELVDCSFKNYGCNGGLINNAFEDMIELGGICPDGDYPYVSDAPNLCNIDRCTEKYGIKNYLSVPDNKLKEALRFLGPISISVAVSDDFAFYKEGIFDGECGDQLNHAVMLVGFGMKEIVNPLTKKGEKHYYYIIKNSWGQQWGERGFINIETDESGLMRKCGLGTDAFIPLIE

Plasmodium falciparum = test: Antiplasmodial activity against Plasmodium falciparum 3D7 infected in human erythrocytes assessed as growth inhibition measured after 52 hrs by SYBR green dye based assay; type: functional, organism-based; settings: 3D7, Erythrocyte
Falcipain 2 [2] = target: T1, Falcipain 2; test: Inhibition of Plasmodium falciparum FP-2 using Z-Leu-Arg-AMC as substrate pretreated with enzyme for 30 mins followed by substrate addition and measured for 30 mins by spectrofluorometry
[3] = target: T2, Falcipain 2 (Plasmodium falciparum) (UniProt Q9N6S8); test: Inhibition of Plasmodium falciparum FP-2 using Z-Leu-Arg-AMC as substrate at 10 uM pretreated with enzyme for 30 mins followed by substrate addition and measured for 30 mins by spectrofluorometry; settings: time 60.0 min
T2 sequence (whole entry): T1 sequence (Q9N6S8 whole entry)

Row | SMILES | IC50 (Falcipain 2 [1]) | EC50 (Plasmodium falciparum) | IC50 (Falcipain 2 [2]) | inhibition [3]
1 | Cc1ccc(-n2cc(COc3ccnc4cc(Cl)ccc34)nn2)cc1 | 26.6 µM | 49.5 µM | – | –
2 | Cc1cc(C)cc(NC(=O)N/N=C/c2ccc(C(=O)O[C@@H]3O[C@@H]4O[C@@]5(C)CC[C@H]6[C@H](C)CC[C@@H]([C@H]3C)[C@@]46OO5)cc2)c1 | – | – | 0.57 µM | –
3 | Fc1ccc(-n2cc(COc3ccnc4cc(Cl)ccc34)nn2)cc1F | 25.6 µM | 21.9 µM | – | –
4 | NC(=O)c1c(NC(=O)CSc2nc3scc(-c4ccccc4)c3c(=O)n2C2CCCCC2)sc2c1CCC2 | – | – | 1.46 µM | 92.7%
5 | COC(=O)c1ccc(CNC(=O)[C@@H](Cc2c[nH]c3ccccc23)NC(=O)Oc2ccccc2)cc1 | – | – | 13.3 µM | 32.9%
6 | Fc1ccc(-n2cc(COc3ccnc4cc(Cl)ccc34)nn2)cc1Cl | 45.1 µM | 406 µM | – | –
7 | C=CCn1c(SCC(=O)Nc2sc3c(c2C(N)=O)CCC3)nc2scc(-c3cccc([N+](=O)[O-])c3)c2c1=O | – | – | 11.8 µM | 53%
8 | COc1ccc(-c2cc(C(=O)N3CCN(S(=O)(=O)c4ccc(NC(C)=O)cc4)CC3)c3ccccc3n2)cc1 | 2.14 µM | 0.81 µM | – | –
9 | CC(=O)Nc1ccc(S(=O)(=O)N2CCN(C(=O)c3cc(-c4ccc(OC(F)(F)F)cc4)nc4ccccc34)CC2)cc1 | 2.64 µM | 1.43 µM | – | –
10 | Fc1ccc(-n2cc(COc3ccnc4cc(Cl)ccc34)nn2)c(F)c1 | 25.4 µM | 159 µM | – | –
11 | C[C@H]1[C@@H](Oc2ccc(/C=N/NC(=S)Nc3ccccc3F)cc2)O[C@@H]2O[C@@]3(C)CC[C@H]4[C@H](C)CC[C@@H]1[C@@]24OO3 | – | – | 2.51 µM | –
12 | O=C(N[C@H](Cc1c[nH]c2ccccc12)C(=O)NCc1ccccc1)Oc1ccccc1 | – | – | 29.7 µM | 29.4%
13 | C=CCn1c(SCC(=O)Nc2sc3c(c2C(N)=O)CCC3)nc2sc3c(c2c1=O)CCCC3 | – | – | 5.77 µM | 82.2%
14 | O=C(c1cc(-c2ccccc2)nc2ccccc12)N1CCN(c2cc(=O)[nH]c3ccccc23)CC1 | 13 µM | 20.2 µM | – | –
15 | C=CCn1c(SCC(=O)Nc2sc3c(c2C(N)=O)CCC3)nc2scc(-c3ccc(Cl)cc3)c2c1=O | – | – | 2.95 µM | 85.7%
16 | COc1ccc(-n2cc(COc3ccnc4cc(Cl)ccc34)nn2)cc1 | 25.4 µM | 51.7 µM | – | –
17 | CCOc1ccc(NC(=O)N/N=C/c2ccc(C(=O)O[C@@H]3O[C@@H]4O[C@@]5(C)CC[C@H]6[C@H](C)CC[C@@H]([C@H]3C)[C@@]46OO5)cc2)cc1 | – | – | 0.29 µM | –
18 | Fc1ccccc1-n1cc(COc2ccnc3cc(Cl)ccc23)nn1 | 107 µM | 66.6 µM | – | –
19 | O=C(c1cc(-c2ccccc2)nc2ccccc12)N1CCN(S(=O)(=O)c2ccc(Cl)cc2Cl)CC1 | 4.2 µM | 20 µM | – | –
20 | O=C(c1cc(Cl)nc2ccccc12)N1CCN(c2ccnc3cc(Cl)ccc23)CC1 | 4.78 µM | 1.05 µM | – | –
21 | Cc1ccc(NC(=S)N/N=C/c2ccc(O[C@H]3O[C@@H]4O[C@@]5(C)CC[C@H]6[C@H](C)CC[C@@H]([C@H]3C)[C@@]46OO5)cc2)c(C)c1 | – | – | 1.35 µM | –
22 | CCOc1cccc(NC(=S)N/N=C/c2ccc(O[C@H]3O[C@@H]4O[C@@]5(C)CC[C@H]6[C@H](C)CC[C@@H]([C@H]3C)[C@@]46OO5)cc2)c1 | – | – | 0.52 µM | –
23 | Cc1ccc(NC(=O)N/N=C/c2ccc(O[C@H]3O[C@@H]4O[C@@]5(C)CC[C@H]6[C@H](C)CC[C@@H]([C@H]3C)[C@@]46OO5)cc2)c(C)c1 | – | – | 1.03 µM | –
24 | C[C@H]1[C@H](OC(=O)c2ccc(/C=N/NC(=O)Nc3ccccc3F)cc2)O[C@@H]2O[C@@]3(C)CC[C@H]4[C@H](C)CC[C@@H]1[C@@]24OO3 | – | – | 0.47 µM | –
25 | O=[N+]([O-])c1ccc(-n2cc(COc3ccnc4cc(Cl)ccc34)nn2)cc1 | 16.2 µM | 49.9 µM | – | –
26 | CC(=O)Nc1ccc(S(=O)(=O)N2CCN(C(=O)c3cc(Cl)nc4ccccc34)CC2)cc1 | 7.37 µM | 1.95 µM | – | –
27 | C[C@H]1[C@H](OC(=O)c2ccc(/C=N/NC(=O)Nc3ccc(F)cc3)cc2)O[C@@H]2O[C@@]3(C)CC[C@H]4[C@H](C)CC[C@@H]1[C@@]24OO3 | – | – | 0.65 µM | –
